{"source": "patent US20150045366A1", "about": "“SPRAY DRIED FORMULATIONS” (Gilead Sciences, Inc., priority 2012, published 2015)", "assay": "Hygroscopicity: weight gain and moisture induced phase transition in humidity-controlled desiccator", "type": "physicochemical", "procedure": "Hygroscopicity of the compositions of invention were measured by placing approximately 20 to 50 mg of the sample in an uncapped scintillation vial. The vial was stored at ambient temperature in a Pyrex brand desiccator (VWR, International, West Chester, Pa.). The humidity within the desiccator was controlled at 55% relative humidity and 75% relative humidity using saturated aqueous solutions of […] and sodium chloride, respectively. The relative humidity was confirmed using a digital hygrometer pen (VWR International, West Chester, Pa.). The weight gain for all the samples was determined after 24 hours; it was not determined whether equilibrium was reached after that period. Visual observation of moisture induced phase transition was also noted.", "data": [{"smiles": "CC(C)c1nc(CN(C)C(=O)N[C@@H](CCN2CCOCC2)C(=O)N[C@H](CC[C@H](Cc2ccccc2)NC(=O)OCc2cncs2)Cc2ccccc2)cs1", "note": "[Compound Free base, thiazol-5-ylmethyl (2R,5R)-5-((S)-2-(3-((2-isopropylthiazol-4-yl)methyl)-3-methylureido)-4-morpholinobutanamido)-1,6-diphenylhexan-2-ylcarbamate]", "values": [{"measurement": "Weight gain at 55% RH", "setting": "55% relative humidity, ambient temperature, after 24 hours", "result": 1.9, "unit": "%"}, {"measurement": "Weight gain at 75% RH", "setting": "75% relative humidity, ambient temperature, after 24 hours", "result": 3.7, "unit": "%"}, {"measurement": "Phase transition (at 55% RH)", "setting": "visual observation of moisture induced phase transition, 55% RH, 24 hours", "result": "yes"}, {"measurement": "Phase transition (at 75% RH)", "setting": "visual observation of moisture induced phase transition, 75% RH, 24 hours", "result": "yes"}]}]}
